# Results: PMC7449217, “The FDA-Approved Drug Nelfinavir Inhibits Lytic Cell-Free but Not Cell-Associated Nonlytic Transmission of Human Adenovirus” (Antimicrobial Agents and Chemotherapy, 2020)
# Where a name gives a salt, the structure may show the parent alone.
# Assays:
# HSV-1-CMV-GFP = test: fluorescence-based plaque-forming assay, A549 cells; assay type: cell-based, herpes simplex virus 1
# Method: (§1) Per 96-well plate, 15,000 A549 cells, 10,000 HeLa cells, 30,000 HBECs, 30,000 HCE cells, or 30,000 CMT-93 cells were seeded in 100 μl of the respective supplemented medium and allowed to settle for 1 h at room temperature (RT) prior to cell culture incubation at 37°C with 5% CO2 and 95% humidity. The following day, the medium was replaced with 50 μl of the respective virus stock dilution giving rise to 5 to 50 plaques per 96-well plate. Fifty microliters of nelfinavir to obtain a 0.1 to 50 μM final concentration or the DMSO solvent control was also added, both in supplemented medium. For each experiment, a noninfected, treated control was performed. […] Plates were imaged on either an IXM-XL or an IXM-C automated high-throughput fluorescence microscope (Molecular Devices, San Jose, CA, USA) using a 4× objective in wide-field mode. Hoechst staining was recorded in the 4′,6-diamidino-2-phenylindole (DAPI) channel, the fluorescein isothiocyanate (FITC)/GFP channel was acquired for viral GFP, and the tetramethyl rhodamine isothiocyanate (TRITC)/Texas Red channel was acquired for hexon immunofluorescence staining.
# The infection phenotype for each well was quantified using Plaque2.0 ([101]). The number of plaques was determined based on the infection signal (viral GFP or hexon immunofluorescence staining). […] The mean TI50 was calculated as the EC50/TC50 ratio of the means. […]
# HAdV-A31 = test: fluorescence-based plaque-forming assay, HCE cells; assay type: cell-based, human adenovirus; settings: HAdV-A31 in HCE
# Method: as §1, with “performed. For uphill plaque assays, the medium volume was increased to 150 μl with identical virus and drug concentrations. For wash-in/washout experiments, the virus was incubated on cells in supplemented medium for 1 h at 37°C, cells were washed with PBS, and a 100-μl drug dilution in supplemented medium was added. All experiments were performed in four technical replicates or as indicated. Cells were incubated under standard cell culture conditions. At the indicated times postinfection, the cells were fixed, and the nuclei were stained for 1 h at RT by the addition of 33 μl 16% (wt/vol) paraformaldehyde (PFA) and 4 μg/ml Hoechst 33342 (Sigma-Aldrich, St. Louis, MO, USA) in PBS. Cells were washed three times with PBS and stored in PBS supplemented with 0.02% N3 for infections with viruses harboring a GFP transgene. For wild-type (wt) viruses, cells were quenched in PBS supplemented with 50 mM NH4Cl, permeabilized using 0.2% (vol/vol) Triton X-100 in PBS, and blocked with 0.5% (wt/vol) bovine serum albumin (BSA) in PBS.” for “performed.”
# (§2) The infection phenotype for each well was quantified using Plaque2.0 ([101]). The number of plaques was determined based on the infection signal (viral GFP or hexon immunofluorescence staining). […] Data were plotted, and the EC50 (infected and treated cells), the TC50 (noninfected, treated cells), as well as the corresponding standard errors (SE) were determined using curve fitting in GraphPad (version 8.1.2; GraphPad Software, Inc.) using three-parameter inhibitor concentration-versus-response nonlinear regression. The mean TI50 was calculated as the […] ratio of the means. The TI50 SE was calculated by error propagation.
# HAdV-C2-dE3B-GFP [1] = test: fluorescence-based plaque-forming assay, HCE cells; assay type: cell-based, human adenovirus
# Method: as §1, with “performed. For uphill plaque assays, the medium volume was increased to 150 μl with identical virus and drug concentrations. For wash-in/washout experiments, the virus was incubated on cells in supplemented medium for 1 h at 37°C, cells were washed with PBS, and a 100-μl drug dilution in supplemented medium was added. All experiments were performed in four technical replicates or as indicated. Cells were incubated under standard cell culture conditions. At the indicated times postinfection, the cells were fixed, and the nuclei were stained for 1 h at RT by the addition of 33 μl 16% (wt/vol) paraformaldehyde (PFA) and 4 μg/ml Hoechst 33342 (Sigma-Aldrich, St. Louis, MO, USA) in PBS. Cells were washed three times with PBS and stored in PBS supplemented with 0.02% N3 for infections with viruses harboring a GFP transgene. For wild-type (wt) viruses, cells were quenched in PBS supplemented with 50 mM NH4Cl, permeabilized using 0.2% (vol/vol) Triton X-100 in PBS, and blocked with 0.5% (wt/vol) bovine serum albumin (BSA) in PBS.” for “performed.”
# as §2
# HAdV-B3-pIX-FS2A-GFP = test: fluorescence-based plaque-forming assay, HBEC; assay type: cell-based, human adenovirus
# Method: (§3) Per 96-well plate, 15,000 A549 cells, 10,000 HeLa cells, 30,000 HBECs, 30,000 HCE cells, or 30,000 CMT-93 cells were seeded in 100 μl of the respective supplemented medium and allowed to settle for 1 h at room temperature (RT) prior to cell culture incubation at 37°C with 5% CO2 and 95% humidity. The following day, the medium was replaced with 50 μl of the respective virus stock dilution giving rise to 5 to 50 plaques per 96-well plate. Fifty microliters of nelfinavir to obtain a 0.1 to 50 μM final concentration or the DMSO solvent control was also added, both in supplemented medium. For each experiment, a noninfected, treated control was performed. For uphill plaque assays, the medium volume was increased to 150 μl with identical virus and drug concentrations. For wash-in/washout experiments, the virus was incubated on cells in supplemented medium for 1 h at 37°C, cells were washed with PBS, and a 100-μl drug dilution in supplemented medium was added. All experiments were performed in four technical replicates or as indicated. Cells were incubated under standard cell culture conditions. At the indicated times postinfection, the cells were fixed, and the nuclei were stained for 1 h at RT by the addition of 33 μl 16% (wt/vol) paraformaldehyde (PFA) and 4 μg/ml Hoechst 33342 (Sigma-Aldrich, St. Louis, MO, USA) in PBS. Cells were washed three times with PBS and stored in PBS supplemented with 0.02% N3 for infections with viruses harboring a GFP transgene. For wild-type (wt) viruses, cells were quenched in PBS supplemented with 50 mM NH4Cl, permeabilized using 0.2% (vol/vol) Triton X-100 in PBS, and blocked with 0.5% (wt/vol) bovine serum albumin (BSA) in PBS. Cells were incubated with 381.7 ng/ml mouse anti-HAdV hexon protein antibody (Mab8052; Sigma-Aldrich, St. Louis, MO, USA) and subsequently stained using 2 μg/ml goat anti-mouse-Alexa Fluor 594 (catalog number A21203 or A32742; Thermo Fisher Scientific, Waltham, MA, USA). Plates were imaged on either an IXM-XL or an IXM-C automated high-throughput fluorescence microscope (Molecular Devices, San Jose, CA, USA) using a 4× objective in wide-field mode. Hoechst staining was recorded in the 4′,6-diamidino-2-phenylindole (DAPI) channel, the fluorescein isothiocyanate (FITC)/GFP channel was acquired for viral GFP, and the tetramethyl rhodamine isothiocyanate (TRITC)/Texas Red channel was acquired for hexon immunofluorescence staining.
# (§4) The infection phenotype for each well was quantified using Plaque2.0 ([101]). The number of plaques was determined based on the infection signal (viral GFP or hexon immunofluorescence staining). Nuclei stained with Hoechst were segmented by using CellProfiler ([178]). Infected nuclei were classified based on the median infection signal per nucleus in CellProfiler. Data were plotted, and the EC50 (infected and treated cells), the TC50 (noninfected, treated cells), as well as the corresponding standard errors (SE) were determined using curve fitting in GraphPad (version 8.1.2; GraphPad Software, Inc.) using three-parameter inhibitor concentration-versus-response nonlinear regression. The mean TI50 was calculated as the […] ratio of the means. The TI50 SE was calculated by error propagation.
# HAdV-B35-pIX-FS2A-GFP = test: fluorescence-based plaque-forming assay, HBEC; assay type: cell-based, human adenovirus
# Method: as §3, §4
# HAdV-C2-dE3B-GFP-dADP = test: fluorescence-based plaque-forming assay, HBEC; assay type: cell-based, human adenovirus; settings: for TI50 (TC50/IC50): HAdV-C2-dE3B-GFP-dADP in HBEC, 4 dpi, GFP
# Method: as §3, §4
# HAdV-C2-dE3B-GFP [2] = test: fluorescence-based plaque-forming assay, HBEC; assay type: cell-based, human adenovirus; settings: for TI50 (TC50/IC50): HAdV-C2-dE3B-GFP in HBEC, 4 dpi, GFP
# Method: as §3, §4
# L3/p23 cysteine protease = target: T1, L3/p23 cysteine protease (Human adenovirus C serotype 5, UniProt P03253); test: Western blot analysis of HAdV protease activity (pVI/VI, pVII/VII in purified HAdV-C5); assay type: cell-based; settings: purified HAdV-C5 grown in the presence of nelfinavir
# T1 construct: Double-CsCl-purified HAdV particles grown in the presence or absence of nelfinavir; endogenous in cells
# T1 sequence (P03253 whole entry): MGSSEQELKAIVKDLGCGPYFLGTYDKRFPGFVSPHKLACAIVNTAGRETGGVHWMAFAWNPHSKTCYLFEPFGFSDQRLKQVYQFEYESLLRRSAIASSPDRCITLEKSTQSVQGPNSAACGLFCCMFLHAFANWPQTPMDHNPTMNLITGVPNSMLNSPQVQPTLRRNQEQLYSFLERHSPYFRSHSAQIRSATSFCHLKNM
# Method: HAdV-C5 was amplified in medium containing 0, 1.25, or 3 μM nelfinavir for 4 days. Cells were harvested and disrupted by three freeze-thaw cycles. The cell debris was removed by freon extraction, and mature full HAdV virions were purified by two rounds of CsCl gradient ultracentrifugation ([162]). The protein concentration was determined by a bicinchoninic acid (BCA) assay (Pierce BCA protein assay kit; Thermo Fisher Scientific, Waltham, MA, USA). For long-term storage, virus stocks were supplemented with 10% (vol/vol) glycerol and kept at −80°C.
# Double-CsCl-purified HAdV particles grown in the presence or absence of nelfinavir (HAdV-C5^±Nelfinavir stocks) and a size standard (PageRuler plus; Thermo Fisher Scientific, Waltham, MA, USA) were size separated on a 12% acrylamide gel under reducing conditions and transferred to a polyvinylidene difluoride (PVDF) membrane. HAdV proteins were detected using primary antibodies, 1:10,000 R72 rabbit antifiber ([181]), 1:1,000 rabbit anti-pVI/VI ([51]), and 1:1,000 R3 rabbit anti-pVII/VII (Ulf Pettersson, Uppsala University), and visualized using goat anti-rabbit-horseradish peroxidase (HRP) (catalog number 7074; Cell Signaling Technology, Danvers, MA, USA) and the ECL Prime Western blotting detection reagent (GE Healthcare, Pittsburgh, PA, USA). […]
smiles,measurement,setting,value
"Cc1c(O)cccc1C(=O)N[C@@H](CSc1ccccc1)[C@H](O)CN1C[C@H]2CCCC[C@H]2C[C@H]1C(=O)NC(C)(C)C [Nelfinavir, Nelfinavir mesylate]",TI50 (TC50/IC50),"HSV-1-CMV-GFP; HSV-1-CMV-GFP in A549, 1 dpi, GFP",17.25
same,EC50,"HSV-1-CMV-GFP; Human alphaherpesvirus 1, A549",2870 nM
same,TI50 (TC50/IC50),"HAdV-A31; 8 dpi, Hexon",1.08
same,EC50,"HAdV-A31; Human adenovirus sp., fixation 8 dpi, read-out Hexon, plaque numbers",18100 nM
same,TI50 (TC50/IC50),"HAdV-C2-dE3B-GFP [1]; HAdV-C2-dE3B-GFP in HCE, 5 dpi, GFP",54.04
same,EC50,"HAdV-C2-dE3B-GFP [1]; Human adenovirus sp., HCE",550 nM
same,TI50 (TC50/IC50),"HAdV-B3-pIX-FS2A-GFP; HAdV-B3-pIX-FS2A-GFP in HBEC, 8 dpi, GFP",1.99
same,EC50,HAdV-B3-pIX-FS2A-GFP; Human adenovirus sp.,6410 nM
same,TI50 (TC50/IC50),"HAdV-B35-pIX-FS2A-GFP; HAdV-B35-pIX-FS2A-GFP in HBEC, 6 dpi, GFP",1.91
same,EC50,HAdV-B35-pIX-FS2A-GFP; Human adenovirus sp.,6990 nM
same,TI50 (TC50/IC50),HAdV-C2-dE3B-GFP-dADP,4.56
same,TI50 (TC50/IC50),HAdV-C2-dE3B-GFP-dADP; listed as nelfinavir,4.6
same,EC50,HAdV-C2-dE3B-GFP-dADP; Human adenovirus sp.,2720 nM
same,TI50 (TC50/IC50),HAdV-C2-dE3B-GFP [2],55.18
same,TI50 (TC50/IC50),HAdV-C2-dE3B-GFP [2]; listed as nelfinavir,55.2
same,EC50,HAdV-C2-dE3B-GFP [2]; Human adenovirus sp.,530 nM
same,effect on proteolytic maturation of the virus by L3/p23 cysteine protease,L3/p23 cysteine protease,did not affect
